According to patent US8906913B2, “Azabicyclohexanes” (Panacea Biotec Limited, priority 2009, dated 2014):
Converted amounts (≈) assume the structure as drawn.

Tests used:
[1] = test system: Enterococcus faecalis ATCC 29212 Vancomycin Sensitive; assay: In-vitro antibacterial activity, broth microdilution MIC; format: cell-based; conditions: ATCC29212, Table 9, E. faecalis, read-out: Antimicrobial activity (in vitro MIC) ATCC 29212
Experimental: (§1) The in-vitro antibacterial activity of the compounds of the present invention (as described in Table 7) was determined by a broth microdilution following the guidelines prescribed by the Clinical and Laboratory Standards Institute (CLSI). This method is described in the CLSI Document M7-A7, Vol. 26, No. 2, “Methods for Dilution Antimicrobial Susceptibility Test for Bacteria that Grow Aerobically; Approved Standard-Seventh Edition”, which is incorporated herein by reference. Minimum Inhibitory Concentration (MIC) is defined as the minimum concentration of test compound which inhibits the growth of bacteria as visible or seen by the naked eye. This test can also be carried out by agar dilution method.
(§2) The compounds of the present invention were tested against a panel of standard microorganisms obtained from ATCC (American type culture collection). Linezolid was used as comparator in all the tests.
(§3) In the broth microdilution method, the compound was dissolved in dimethylsulfoxide and two fold serial dilutions were carried out in 96 well microtitre plates. The inoculum was prepared by adjusting the turbidity of actively growing broth culture and added to the wells to obtain a final bacterial count of ˜2-5×10^4 CFU/well. The microtitre plates were incubated at 35±2° C. for 16-20 h and then read visually.

[2] = test system: Staphylococcus aureus ATCC 33591 MRSA (Methicillin resistant); assay: as above; format: cell-based; conditions: Table 9, S. aureus MRSA, read-out: Antimicrobial activity (in vitro MIC) ATCC 33591
Experimental: as §1, §2, §3

[3] = test system: Staphylococcus aureus ATCC 29213 MSSA (Methicillin sensitive); assay: as above; format: cell-based; conditions: Table 9, S. aureus MSSA, read-out: Antimicrobial activity (in vitro MIC) ATCC 29213
Experimental: as §1, §2, §3

[4] = test system: Enterococcus faecium ATCC 700221 VRE (Vancomycin resistant E. faecium); assay: as above; format: cell-based; conditions: Table 9, read-out: Antimicrobial activity (in vitro MIC) ATCC 700221
Experimental: as §1, §2, §3

male SWISS albino mice = assay: Forced Swim Test; format: in vivo; conditions: mice; for CNS Activity (in vivo FST) % decrease in immobility time / CNS Activity (in vivo FST) % decrease in immobility time (dose 32 mg/kg): Table 9; for CNS Activity (in vivo FST) % decrease in immobility time: footnote *: dose 64 mg/kg/p.o; for inhibition in vivo at 32 mg/kg: Mus musculus, 0.25 h, Table 8, oral, suspended in deionized water, 15 min before test, read-out: % decrease in immobility time (dose 32 mg/kg)
Experimental: This test was conducted according to the method of Porsolt et al. (Porsolt, R. D., et al., Behavioural despair in mice: A primary screening test for antidepressants. Arch. in Pharmacodyn. Ther., 229, pp 327-336 (1977)).
A test compound was suspended in deionized water, unless otherwise specified, and this suspension was orally administered to male SWISS albino mice (7 to 9 week old). 15 min later, the mice were placed in a water tank having a water depth of 15 cm and a water temperature of 25±1° C. and immediately thereafter allowed to swim for 6 min. Then, a time during which the mouse was immobile (immobility time) was measured for the last 4 min.

Row | SMILES | MIC [1] [µg/mL] | MIC [2] [µg/mL] | MIC [3] [µg/mL] | MIC [4] [µg/mL] | CNS Activity (in vivo FST) % decrease in immobility time (male SWISS albino mice) | CNS Activity (in vivo FST) % decrease in immobility time (dose 32 mg/kg) (male SWISS albino mice) [%] | inhibition in vivo at 32 mg/kg (male SWISS albino mice) [%]
1 | CCN1CC2CC2(c2ccc(N3CCOCC3)cc2)C1 (centres unmarked) | > 32 | > 32 | > 32 | > 32 | 81.0 ± 7.1* % | – | –
2 | CCN1CC2CC2(c2ccc(N3CCOC3=O)cc2)C1.Cl (centres unmarked) | > 32 | > 32 | > 32 | > 32 | – | 99.2 ± 0.8 | –
3 | CCN1CC2CC2(c2ccc(N3CCCC3)cc2)C1 (centres unmarked) [drawing 519] | – | – | – | – | – | – | 99.9 ± 0.1
4 | CCN1CC2C(COC)C2(c2ccc(N3CCCC3)cc2)C1 (centres unmarked) [drawing 531] | – | – | – | – | – | – | 97.2 ± 1.2
5 | CC(=O)N1CC2CC2(c2ccc(N3C[C@H](CO)OC3=O)cc2)C1 (some centres unmarked) [drawing 534] | 4 (≈ 12.6 µM) | 2 (≈ 6.32 µM) | 4 (≈ 12.6 µM) | 4 (≈ 12.6 µM) | – | 5.1 ± 1.4 | –
6 | CCN1CC2CC2(c2ccc(N3CCCC3)cc2)C1 (centres unmarked) [drawing 535] | > 32 | > 32 | > 32 | > 32 | – | 99.9 ± 0.1 | –
7 | c1cc(C23CNCC2C3)ccc1N1CCOCC1 (centres unmarked) [drawing 537] | > 32 | > 32 | > 32 | > 32 | 84.8* % | – | –
8 | CCN1CC2C(COC)C2(c2ccc(N3CCCC3)cc2)C1 (centres unmarked) [drawing 538] | > 32 | > 32 | > 32 | > 32 | – | 97.2 ± 1.2 | –
